Assay [1] deals with T1, ERBB2-A775_G776insYVMA (ERBB2YVMA) (Homo sapiens, UniProt P04626, INS775YVMA).
T1 construct: purchased SignalChem E27-13BG
Nature of the assay: HotSpot radiometric kinase activity assay, ERBB2YVMA. As to conditions: biochemical activity, 20 nM ERBB2YVMA, 10 μM 33P-ATP, 2 hours, read-out: HER2 - YVMA IC50. Here is the method: (§1) The purpose of the wtERBB2, ERBB2-A775_G776insYVMA (ERBB2YVMA), wtEGFR biochemical assay was to evaluate the inhibition (% inhibition and IC50 values) of the small molecule inhibitors by using the “HotSpot” radiometric kinase activity assay. HotSpot assays monitor the production of kinase substrate by the radioactive gamma phosphate of adenosine triphosphate (33P-ATP) during biochemical reactions. HotSpot assays was performed in steps upon completion of the kinase reaction: deposition of a reaction mixture aliquot onto P81 ion exchange paper, extensive washing of the aforementioned P81 paper using phosphoric acid to remove unbound radiolabeled 33P-ATP from the P81 paper, and finally visualization and quantification of the dried P81 paper utilizing a phosphoimager. […] Typical reaction solutions (10 μL, final reaction volume) contained the following buffer conditions: 20 mM Hepes (pH 7.5), 10 mM MgCl2, 1 mM EGTA, 0.01% Brij35, 0.02 mg/mL BSA, 0.1 mM Na3VO4, 2 mM DTT, 1% DMSO. The assay was primed by preparing a fresh 0.2 mg/mL solution of pEY (Sigma Cat: P7244) substrate in the reaction buffer and supplementing that solution with […] of MnCl2 as substrate cofactor (Sigma Cat: M9522). The kinase of interest was then added to the solution at the appropriate concentration (30 nM wtERBB2 from, or 20 nM ERBB2YVMA, or 4 nM wtEGFR) and gently mixed prior to delivery of compound in 100% DMSO by acoustic dispensing (Beckman Echo550). Compound, Kinase, and substrate were allowed to incubate for 20 min at room temperature prior to the initiation of the reaction by addition of 33P-ATP (PerkinElmer Cat: NEG602, final conc 10 μM). […] IC50 determinations were made from a plot of kinase activity as a function of inhibitor concentration fit to the 4-parameter IC50 equation with the enzyme concentration held constant using GraphPad Prism (San Diego).

Assay [2] addresses T2, wtEGFR (Homo sapiens, UniProt P00533).
T2 construct: purchased Invitrogen PR7295B
As to the kind of experiment: HotSpot radiometric kinase activity assay, wtEGFR. The conditions noted are these: biochemical activity, 4 nM wtEGFR, 10 μM 33P-ATP, 2 hours, read-out: EGFR WT IC50. Here is the method:
as §1

Assay [3] deals with BaF3_HER2WT cells (Homo sapiens, UniProt P04626). As to the kind of experiment: Cell growth inhibition assay (CellTiterGlo), BaF3_HER2WT. The format is cell-based. As to conditions: 3-day treatment, CellTiterGlo, read-out: Cell growth inhibition activity, HER2 WT.
Chain of BaF3_HER2WT cells (P04626 whole entry, change not shown): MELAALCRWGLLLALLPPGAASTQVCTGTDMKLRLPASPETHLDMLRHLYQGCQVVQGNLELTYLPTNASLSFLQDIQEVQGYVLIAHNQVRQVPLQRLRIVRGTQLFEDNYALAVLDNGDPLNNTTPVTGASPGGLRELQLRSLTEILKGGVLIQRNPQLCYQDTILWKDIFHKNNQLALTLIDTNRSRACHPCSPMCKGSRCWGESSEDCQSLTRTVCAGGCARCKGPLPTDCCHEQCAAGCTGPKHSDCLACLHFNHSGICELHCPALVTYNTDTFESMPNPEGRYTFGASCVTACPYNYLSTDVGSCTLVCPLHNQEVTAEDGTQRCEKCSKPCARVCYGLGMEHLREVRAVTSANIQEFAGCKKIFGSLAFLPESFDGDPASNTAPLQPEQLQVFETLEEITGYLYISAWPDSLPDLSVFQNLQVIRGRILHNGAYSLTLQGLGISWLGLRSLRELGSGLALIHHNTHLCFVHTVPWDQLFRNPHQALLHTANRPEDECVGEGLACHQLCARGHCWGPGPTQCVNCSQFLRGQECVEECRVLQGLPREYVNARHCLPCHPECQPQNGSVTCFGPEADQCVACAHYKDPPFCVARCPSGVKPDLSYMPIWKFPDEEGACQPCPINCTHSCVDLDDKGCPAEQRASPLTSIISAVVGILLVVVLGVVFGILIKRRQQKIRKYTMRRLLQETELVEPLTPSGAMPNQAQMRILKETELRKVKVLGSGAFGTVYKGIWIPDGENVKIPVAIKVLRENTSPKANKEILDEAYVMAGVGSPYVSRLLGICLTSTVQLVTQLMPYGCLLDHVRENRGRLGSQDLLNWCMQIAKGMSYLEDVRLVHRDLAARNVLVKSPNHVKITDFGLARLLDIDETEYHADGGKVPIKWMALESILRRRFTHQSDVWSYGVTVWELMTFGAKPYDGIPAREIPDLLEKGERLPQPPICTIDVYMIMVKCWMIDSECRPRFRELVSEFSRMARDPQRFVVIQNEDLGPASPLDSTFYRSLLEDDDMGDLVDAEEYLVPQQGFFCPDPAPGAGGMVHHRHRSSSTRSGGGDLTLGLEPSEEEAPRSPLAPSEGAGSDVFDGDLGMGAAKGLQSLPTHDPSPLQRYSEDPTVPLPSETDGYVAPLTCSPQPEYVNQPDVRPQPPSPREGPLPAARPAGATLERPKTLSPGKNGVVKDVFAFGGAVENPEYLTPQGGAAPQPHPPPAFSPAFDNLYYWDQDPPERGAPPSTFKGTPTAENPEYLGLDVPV
In assay [4] the target is BaF3_HER2YVMA cells (Homo sapiens, UniProt P04626, DUP772-775, cells depend on it). Nature of the assay: Cell growth inhibition assay (CellTiterGlo), BaF3_HER2YVMA. It counts as cell-based. As to conditions: 3-day treatment, CellTiterGlo, read-out: Cell growth inhibition activity, HER2 - YVMA.
The target of assay [5] is BaF3_EGFRWT cells (Homo sapiens, UniProt P00533). As to the kind of experiment: Cell growth inhibition assay (CellTiterGlo), BaF3_EGFRWT. It counts as cell-based. The conditions noted are these: 3-day treatment, CellTiterGlo, read-out: Cell growth inhibition activity, EGFR WT. On the technique in general: Cellular ATP, detected with luciferase, serves as a proxy for viable cell number.
Chain of BaF3_EGFRWT cells (P00533 whole entry, change not shown): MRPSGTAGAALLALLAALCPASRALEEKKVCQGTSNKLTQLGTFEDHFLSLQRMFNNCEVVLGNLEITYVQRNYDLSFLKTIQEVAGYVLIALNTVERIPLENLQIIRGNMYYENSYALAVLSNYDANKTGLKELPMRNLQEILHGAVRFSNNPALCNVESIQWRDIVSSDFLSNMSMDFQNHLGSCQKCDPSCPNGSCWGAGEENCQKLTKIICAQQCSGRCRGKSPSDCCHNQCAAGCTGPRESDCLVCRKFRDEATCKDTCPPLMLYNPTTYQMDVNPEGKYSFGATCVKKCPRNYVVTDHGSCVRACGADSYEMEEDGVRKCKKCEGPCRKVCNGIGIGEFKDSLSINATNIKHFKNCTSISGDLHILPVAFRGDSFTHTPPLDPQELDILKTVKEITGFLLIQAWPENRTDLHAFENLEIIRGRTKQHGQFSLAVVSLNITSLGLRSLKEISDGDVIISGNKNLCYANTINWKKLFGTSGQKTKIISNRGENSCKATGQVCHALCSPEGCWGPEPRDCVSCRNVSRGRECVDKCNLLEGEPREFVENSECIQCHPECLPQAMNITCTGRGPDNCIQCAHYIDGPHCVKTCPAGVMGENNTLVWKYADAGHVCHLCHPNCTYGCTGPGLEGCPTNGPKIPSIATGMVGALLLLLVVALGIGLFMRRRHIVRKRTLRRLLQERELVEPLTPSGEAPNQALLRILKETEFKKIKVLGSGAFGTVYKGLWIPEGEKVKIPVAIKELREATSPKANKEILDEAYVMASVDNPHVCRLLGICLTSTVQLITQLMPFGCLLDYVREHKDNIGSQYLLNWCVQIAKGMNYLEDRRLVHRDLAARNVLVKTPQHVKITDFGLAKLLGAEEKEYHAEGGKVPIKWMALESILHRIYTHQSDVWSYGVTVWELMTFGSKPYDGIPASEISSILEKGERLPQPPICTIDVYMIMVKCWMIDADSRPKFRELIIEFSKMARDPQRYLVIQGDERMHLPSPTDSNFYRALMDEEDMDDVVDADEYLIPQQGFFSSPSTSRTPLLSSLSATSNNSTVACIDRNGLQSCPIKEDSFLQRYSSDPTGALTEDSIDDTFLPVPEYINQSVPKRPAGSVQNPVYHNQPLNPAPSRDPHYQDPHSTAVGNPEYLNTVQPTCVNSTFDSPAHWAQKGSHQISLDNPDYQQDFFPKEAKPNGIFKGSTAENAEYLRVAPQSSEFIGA

In US20240132521A1, “COMPOUNDS AND METHODS FOR MODULATING HER2” (Iambic Therapeutics, Inc., priority 2022, published 2024) one finds IC50 and GI50 data, which are given here for 13 molecules.

In general, IC50 refers to the concentration at which inhibition is half-maximal.

The structures appear in SMILES notation.

T1 sequence (P04626 with tags, fused parts or gaps INS775YVMA limits assumed): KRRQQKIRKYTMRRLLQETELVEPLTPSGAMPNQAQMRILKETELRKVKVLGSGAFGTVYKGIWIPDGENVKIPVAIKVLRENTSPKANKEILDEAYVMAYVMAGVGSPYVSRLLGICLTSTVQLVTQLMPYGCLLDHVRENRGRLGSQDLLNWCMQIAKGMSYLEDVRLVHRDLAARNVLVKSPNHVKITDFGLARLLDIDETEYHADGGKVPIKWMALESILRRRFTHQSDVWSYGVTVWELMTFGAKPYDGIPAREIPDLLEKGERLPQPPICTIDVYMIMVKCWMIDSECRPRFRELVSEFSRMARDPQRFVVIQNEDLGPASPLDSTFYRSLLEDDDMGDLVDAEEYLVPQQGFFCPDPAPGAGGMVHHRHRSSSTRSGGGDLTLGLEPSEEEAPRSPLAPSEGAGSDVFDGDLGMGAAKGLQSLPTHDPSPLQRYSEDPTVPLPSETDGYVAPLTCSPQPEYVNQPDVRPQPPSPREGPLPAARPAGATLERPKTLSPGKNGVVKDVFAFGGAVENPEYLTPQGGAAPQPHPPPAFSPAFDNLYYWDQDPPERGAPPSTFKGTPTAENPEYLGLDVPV
T2 sequence (P00533 25-1210): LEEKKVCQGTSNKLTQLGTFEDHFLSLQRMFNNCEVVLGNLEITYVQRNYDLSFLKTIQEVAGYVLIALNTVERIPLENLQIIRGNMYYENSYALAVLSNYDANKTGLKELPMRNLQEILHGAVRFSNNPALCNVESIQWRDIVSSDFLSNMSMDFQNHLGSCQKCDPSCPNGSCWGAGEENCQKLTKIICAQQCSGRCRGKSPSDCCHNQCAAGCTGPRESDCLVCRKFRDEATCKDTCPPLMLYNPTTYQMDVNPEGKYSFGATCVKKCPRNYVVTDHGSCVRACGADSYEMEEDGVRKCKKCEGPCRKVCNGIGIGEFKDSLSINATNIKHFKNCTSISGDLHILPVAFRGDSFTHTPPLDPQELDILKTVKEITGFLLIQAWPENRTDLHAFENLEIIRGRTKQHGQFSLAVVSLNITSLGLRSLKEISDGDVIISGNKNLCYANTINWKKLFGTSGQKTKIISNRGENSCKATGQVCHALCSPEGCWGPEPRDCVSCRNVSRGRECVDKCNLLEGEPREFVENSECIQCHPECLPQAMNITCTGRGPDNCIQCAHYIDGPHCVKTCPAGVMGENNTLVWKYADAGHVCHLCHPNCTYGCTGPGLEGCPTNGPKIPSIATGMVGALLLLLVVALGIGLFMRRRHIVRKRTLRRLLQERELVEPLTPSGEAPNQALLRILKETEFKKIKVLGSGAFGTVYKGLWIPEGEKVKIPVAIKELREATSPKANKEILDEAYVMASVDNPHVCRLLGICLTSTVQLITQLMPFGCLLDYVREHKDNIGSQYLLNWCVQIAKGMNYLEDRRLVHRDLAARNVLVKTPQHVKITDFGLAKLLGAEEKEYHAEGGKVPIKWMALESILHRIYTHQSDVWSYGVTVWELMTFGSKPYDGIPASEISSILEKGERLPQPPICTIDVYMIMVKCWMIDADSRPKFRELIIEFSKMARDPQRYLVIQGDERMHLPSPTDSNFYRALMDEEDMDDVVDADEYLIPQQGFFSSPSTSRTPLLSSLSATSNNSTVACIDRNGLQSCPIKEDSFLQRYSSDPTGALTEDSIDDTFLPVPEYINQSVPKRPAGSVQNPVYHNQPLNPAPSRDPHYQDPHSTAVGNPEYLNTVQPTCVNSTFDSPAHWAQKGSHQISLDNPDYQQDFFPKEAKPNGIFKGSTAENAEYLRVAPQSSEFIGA

For the molecule `C=CC(=O)NC1CCN(C(=O)c2ccn3ncnc(Nc4ccc(Oc5ccn6ncnc6c5)c(C)c4)c23)CC1` [Example 5, N-(1-(4-((4-([1,2,4]triazolo[1,5-a]pyridin-7-yloxy)-3-methylphenyl)amino)pyrrolo[2,1-f][1,2,4]triazine-5-carbonyl)piperidin-4-yl)acrylamide], the half-inhibitory concentration (IC50) lay in the range of 200 to 500 nM in assay [1] and 1500 to 5000 nM in assay [2]. Further, the GI50 was less than 200 nM in assay [3], 200 to 500 nM in assay [4] and 1500 to 5000 nM in assay [5].
With `C=CC(=O)N1CCC(c2ccn3ncnc(Nc4ccc(Oc5ccn6ncnc6c5)c(C)c4)c23)C1` (centres unmarked) [Example 11, 1-(3-(4-((4-([1,2,4]triazolo[1,5-a]pyridin-7-yloxy)-3-methylphenyl)amino)pyrrolo[2,1-f][1,2,4]triazin-5-yl)pyrrolidin-1-yl)prop-2-en-1-one], the values for the IC50 in assay [1] and in assay [2] were less than 200 nM and 500 to 1500 nM, respectively. The GI50 is less than 200 nM in assay [3], less than 200 nM in assay [4] and 1500 to 5000 nM in assay [5].
Regarding `C=CC(=O)NCCn1cc(-c2ccn3ncnc(Nc4ccc(Oc5ccn6ncnc6c5)c(C)c4)c23)cn1` [Example 13, N-(2-(4-(4-((4-([1,2,4]triazolo[1,5-a]pyridin-7-yloxy)-3-methylphenyl)amino)pyrrolo[2,1-f][1,2,4]triazin-5-yl)-1H-pyrazol-1-yl)ethyl)acrylamide], the figures for the IC50 in assay [1] and in assay [2] were less than 200 nM and 1500 to 5000 nM, respectively. Further, the GI50 in assay [3] is less than 200 nM; in assay [4], 200 to 500 nM; in assay [5], 1500 to 5000 nM.
Take `C=CC(=O)NC1CN(c2ccn3ncnc(Nc4ccc(Oc5ccn6ncnc6c5)c(C)c4)c23)C1` [Example 14, N-(1-(4-((4-([1,2,4]triazolo[1,5-a]pyridin-7-yloxy)-3-methylphenyl)amino)pyrrolo[2,1-f][1,2,4]triazin-5-yl)azetidin-3-yl)acrylamide]: the results for the IC50 in assay [1] and in assay [2] were less than 200 nM and 200 to 500 nM, respectively. Besides, the GI50 in assay [3] is less than 200 nM; in assay [4] it was less than 200 nM; in assay [5] it was 1500 to 5000 nM.
Turning to `C=CC(=O)N1CC2(C1)CN(c1ccn3ncnc(Nc4ccc(Oc5ccn6ncnc6c5)c(C)c4)c13)C2` [Example 16, 1-(6-(4-((4-([1,2,4]triazolo[1,5-a]pyridin-7-yloxy)-3-methylphenyl)amino)pyrrolo[2,1-f][1,2,4]triazin-5-yl)-2,6-diazaspiro[3.3]heptan-2-yl)prop-2-en-1-one], the figures for the IC50 in assay [1] and in assay [2] were less than 200 nM and 1500 to 5000 nM, respectively. Also, the figures for the GI50 in assay [3], in assay [4] and in assay [5] were 200 to 500 nM, 500 to 1500 nM and 1500 to 5000 nM, respectively.
For `C=C(F)C(=O)NC1CN(c2ccn3ncnc(Nc4ccc(Oc5ccn6ncnc6c5)c(C)c4)c23)C1` [Example 18, N-(1-(4-((4-([1,2,4]triazolo[1,5-a]pyridin-7-yloxy)-3-methylphenyl)amino)pyrrolo[2,1-f][1,2,4]triazin-5-yl)azetidin-3-yl)-2-fluoroacrylamide], the figures for the IC50 in assay [1] and in assay [2] were less than 200 nM and 1500 to 5000 nM, respectively. Besides, the GI50 in assay [3] is 200 to 500 nM; in assay [4], 500 to 1500 nM; in assay [5] it was 1500 to 5000 nM.
`C=C(F)C(=O)N1CC(n2cc(-c3ccn4ncnc(Nc5ccc(Oc6ccn7ncnc7c6)c(C)c5)c34)cn2)C1` [Example 19, 1-(3-(4-(4-((4-([1,2,4]triazolo[1,5-a]pyridin-7-yloxy)-3-methylphenyl)amino)pyrrolo[2,1-f][1,2,4]triazin-5-yl)-1H-pyrazol-1-yl)azetidin-1-yl)-2-fluoroprop-2-en-1-one]: the half-inhibitory concentration (IC50) was in the range of 200 to 500 nM in assay [1] and 1500 to 5000 nM in assay [2]. The GI50 fell in the range of 200 to 500 nM in assay [3], 500 to 1500 nM in assay [4] and 1500 to 5000 nM in assay [5].
For `Cc1cc(Nc2ncnn3ccc(N4CCN(C(=O)/C=C/CN(C)C)CC4)c23)ccc1Oc1ccn2ncnc2c1` [Example 22, (E)-1-(4-(4-((4-([1,2,4]triazolo[1,5-a]pyridin-7-yloxy)-3-methylphenyl)amino)pyrrolo[2,1-f][1,2,4]triazin-5-yl)piperazin-1-yl)-4-(dimethylamino)but-2-en-1-one], the IC50 in assay [1] was less than 200 nM; in assay [2], 500 to 1500 nM. For the same molecule, the GI50 in assay [3] was less than 200 nM; in assay [4] it was less than 200 nM; in assay [5], 1500 to 5000 nM.
With `Cc1cc(Nc2ncnn3ccc(C4CCN(C(=O)CCCN(C)C)CC4)c23)ccc1Oc1ccn2ncnc2c1` [Example 23, 1-(4-(4-((4-([1,2,4]triazolo[1,5-a]pyridin-7-yloxy)-3-methylphenyl)amino)pyrrolo[2,1-f][1,2,4]triazin-5-yl)piperidin-1-yl)-4-(dimethylamino)butan-1-one], the IC50 is less than 200 nM in assay [1] and 500 to 1500 nM in assay [2]. Besides, the GI50 lay within 500 to 1500 nM in assay [3], 1500 to 5000 nM in assay [4] and 1500 to 5000 nM in assay [5].
`Cc1cc(Nc2ncnn3ccc(C4CN(C(=O)/C=C/CN)C4)c23)ccc1Oc1ccn2ncnc2c1` [Example 87, (E)-1-(3-(4-((4-([1,2,4]triazolo[1,5-a]pyridin-7-yloxy)-3-methylphenyl)amino)pyrrolo[2,1-f][1,2,4]triazin-5-yl)azetidin-1-yl)-4-aminobut-2-en-1-one]: the IC50 is less than 200 nM in assay [1] and 200 to 500 nM in assay [2]. For the same molecule, the GI50 in assay [3], in assay [4] and in assay [5] was 1500 to 5000 nM in each case.
For `Cc1cc(Nc2ncnn3ccc(C4CN(C(=O)/C=C/CN5CC(F)(F)C5)C4)c23)ccc1Oc1ccn2ncnc2c1` [Example 91, (E)-1-(3-(4-((4-([1,2,4]triazolo[1,5-a]pyridin-7-yloxy)-3-methylphenyl)amino)pyrrolo[2,1-f][1,2,4]-triazin-5-yl)azetidin-1-yl)-4-(3,3-difluoroazetidin-1-yl)but-2-en-1-one], the results for the half-inhibitory concentration (IC50) in assay [1] and in assay [2] were less than 200 nM and 500 to 1500 nM, respectively. Moreover, the GI50 in assay [3] was less than 200 nM; in assay [4], 500 to 1500 nM; in assay [5], 1500 to 5000 nM.
For the molecule `Cc1cc(Nc2ncnn3ccc(C4CCCN(C(=O)/C=C/CN(C)C)CC4)c23)ccc1Oc1ccn2ncnc2c1` (centres unmarked) [Example 93, (E)-1-(4-(4-((4-([1,2,4]triazolo[1,5-a]pyridin-7-yloxy)-3-methylphenyl)amino)pyrrolo[2,1-f][1,2,4]triazin-5-yl)azepan-1-yl)-4-(dimethylamino)but-2-en-1-one], the IC50 in assay [1] is less than 200 nM; in assay [2] it was 200 to 500 nM. Also, the results for the GI50 in assay [3], in assay [4] and in assay [5] were less than 200 nM, less than 200 nM and 1500 to 5000 nM, respectively.
For the molecule `Cc1cc(Nc2ncnn3ccc(C4CC5(C4)CN(C(=O)/C=C/CN(C)C)C5)c23)ccc1Oc1ccn2ncnc2c1` [Example 95, (E)-1-(6-(4-((4-([1,2,4]triazolo[1,5-a]pyridin-7-yloxy)-3-methylphenyl)amino)pyrrolo[2,1-f][1,2,4]triazin-5-yl)-2-azaspiro[3.3]heptan-2-yl)-4-(dimethylamino)but-2-en-1-one], the values for the half-maximal inhibitory concentration (IC50) in assay [1] and in assay [2] were less than 200 nM and 200 to 500 nM, respectively. Also, the GI50 in assay [3] was 200 to 500 nM; in assay [4] it was 500 to 1500 nM; in assay [5], 1500 to 5000 nM.
